This passage reports IC50 results from patent US20130217664A1, “NOVEL COMPOUNDS USEFUL FOR THE TREATMENT OF DEGENERATIVE AND INFLAMMATORY DISEASES” (priority 2012, published 2013).

SMILES strings stand for the structures. Read-outs that look alike come from different tables or passages of the source.

The target in one assay is T1, human TYK2 (Homo sapiens, UniProt P29597).
T1 construct: catalytic domain (amino acids 871-1187; catalog number 08-147); purchased Carna Biosciences 08-147
T1 sequence (P29597 871-1187): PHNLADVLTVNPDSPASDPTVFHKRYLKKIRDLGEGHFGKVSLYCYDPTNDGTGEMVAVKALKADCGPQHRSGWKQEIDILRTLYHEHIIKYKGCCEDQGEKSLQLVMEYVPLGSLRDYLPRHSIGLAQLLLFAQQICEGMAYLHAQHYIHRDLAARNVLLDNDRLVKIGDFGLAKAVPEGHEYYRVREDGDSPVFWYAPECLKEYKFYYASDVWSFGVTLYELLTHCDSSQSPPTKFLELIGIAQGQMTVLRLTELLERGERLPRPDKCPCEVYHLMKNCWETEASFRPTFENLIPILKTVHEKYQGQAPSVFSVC
Put plainly: TYK2 inhibition assay. The following applies: recombinant human TYK2 catalytic domain, polyGT substrate. The format is biochemical. In a few lines:
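Radiometric kinase reaction run 90 min at 30 °C, stopped with phosphoric acid, washed and scintillation-counted.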

For assay [1], the system named is pSTAT1(2)-luciferase reporter in HeLa cells triggered with human OSM. The experiment in a line: JAK-STAT signalling assay. The format is cell-based. The following applies: read-out: JAK-STAT IC50. In a few lines:
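Compound added 60 min before 33 ng/mL (final) human OSM; after overnight stimulation at 37 °C, luciferase signal from a transiently transfected pSTAT1(2) reporter in HeLa cells was read, with LacZ as internal control. EC50 derived from percent-inhibition dose-response curves.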

Where [2] appears, read: HeLa cells, pSTAT1(2)-luciferase reporter, human OSM 33 ng/mL.
The mark [3] stands for this setting: Homo sapiens, HeLa, HeLa cells, pSTAT1(2)-luciferase reporter, human OSM 33 ng/mL.

Usually IC50 stands for the point on the concentration scale where inhibition reaches its midpoint.

With `Cc1cc(-c2cn[nH]c2)ccc1N(C)c1cc2c(cn1)ncn2C` [Compound 71, N,1-Dimethyl-N-(2-methyl-4-(1H-pyrazol-4-yl)phenyl)-1H-imidazo[4,5-c]pyridin-6-amine], the results for the IC50 (at human TYK2; in assay [1] (setting [2])) were 0.01 to 100 nM and > 1000 nM, respectively.
Regarding `CCc1ccc(C#N)cc1N(C)c1cc2c(cn1)ncn2C` [Compound 83, 4-ethyl-3-(methyl(1-methyl-1H-imidazo[4,5-c]pyridin-6-yl)amino)benzonitrile], the IC50 at human TYK2 is 101 to 500 nM; in assay [1] (setting [3]), > 1000 nM.
On the same counts, the results for `Cc1c(OCC#N)cccc1N(C)c1cc2c(cn1)ncn2C` [Compound 64, 2-(2-methyl-3-(methyl(1-methyl-1H-imidazo[4,5-c]pyridin-6-yl)amino)phenoxy)acetoni-trile] are 101 to 500 nM and > 1000 nM.
Consider `CCc1cc(C2CN(C(C)=O)C2)ncc1N(C)c1cc2c(cn1)ncn2C` [Compound 332, 1-(3-{4-Ethyl-5-[methyl-(1-methyl-1H-imidazo[4,5-c]pyridin-6-yl)-amino]-pyridin-2-yl}-azetidin-1-yl)-ethanone], for which the IC50 (on human TYK2; in assay [1] (setting [2])) was > 1000 nM each time.
Turning to `CCc1cc(-c2ccc(CNC(=O)OC(C)(C)C)s2)ncc1N(C)c1cc2c(cn1)ncn2C` [Compound 302], the IC50 was 101 to 500 nM on human TYK2 and > 1000 nM in assay [1] (setting [2]).
For the molecule `CCc1ccccc1N(CC1CC1)c1cc2c(cn1)ncn2C` [Compound 35, N-(cyclopropylmethyl)-N-(2-ethylphenyl)-1-methyl-1H-imidazo[4,5-c]pyridin-6-amine], the IC50 at human TYK2 is 101 to 500 nM; in assay [1] (setting [3]), > 1000 nM.
`CCc1cc(-c2ccc(Cl)s2)ncc1N(C)c1cc2c(cn1)ncn2C` [Compound 304, [6-(5-Chloro-thiophen-2-yl)-4-ethyl-pyridin-3-yl]-methyl-(1-methyl-1H-imidazo[4,5-c]pyridin-6-yl)-amine]: the IC50 was 0.01 to 100 nM at human TYK2 and 1 to 500 nM in assay [1] (setting [2]).
Consider `Cc1cc(-c2cnn(C)c2)ccc1N(C)c1cc2c(cn1)ncn2C` [Compound 73, N,1-dimethyl-N-(2-methyl-4-(1-methyl-1H-pyrazol-4-yl)phenyl)-1H-imidazo[4,5-c]pyridin-6-amine], for which the values for the IC50 (on human TYK2; in assay [1] (setting [2])) were 101 to 500 nM and > 1000 nM, respectively.
Regarding `COC(=O)c1ccc(N(C)c2cc3c(cn2)ncn3C)c(C)c1` [Compound 27, Methyl 3-methyl-4-(methyl(1-methyl-1H-imidazo[4,5-c]pyridin-6-yl)amino)benzoate], the IC50 (on human TYK2; in assay [1] (setting [3])) was > 1000 nM in each case.
In the case of `CCc1cc(-c2ccc(C)s2)ncc1N(C)c1cc2c(cn1)ncn2C` [Compound 311, [4-Ethyl-6-(5-methyl-thiophen-2-yl)-pyridin-3-yl]-methyl-(1-methyl-1H-imidazo[4,5-c]pyridin-6-yl)-amine], the figures for the IC50 (at human TYK2; in assay [1] (setting [3])) were 0.01 to 100 nM and 1 to 500 nM, respectively.
For `Cc1ccc(OCc2cccnc2)cc1N(C)c1cc2c(cn1)ncn2C` [Compound 61, N,1-dimethyl-N-(2-methyl-5-(pyridin-3-ylmethoxy)phenyl)-1H-imidazo[4,5-c]pyridin-6-amine], the IC50 (at human TYK2; in assay [1] (setting [2])) was > 1000 nM each time.
Take `CCc1ccc(F)cc1N(C)c1cc2c(cn1)ncn2C` [Compound 84, N-(2-ethyl-5-fluorophenyl)-N,1-dimethyl-1H-imidazo[4,5-c]pyridin-6-amine]: the values for the IC50 (at human TYK2; in assay [1] (setting [3])) were 101 to 500 nM and 501 to 1000 nM, respectively.
On to `CCc1cc(O)ccc1N(C)c1cc2c(cn1)ncn2C` [Compound 107, 3-ethyl-4-(methyl(1-methyl-1H-imidazo[4,5-c]pyridin-6-yl)amino)phenol], for which the results for the IC50 (at human TYK2; in assay [1] (setting [3])) were 0.01 to 100 nM and 501 to 1000 nM, respectively.
The matching figures for `Cc1cc(OCC#N)ccc1N(C)c1cc2c(cn1)ncn2C` [Compound 47, 2-(3-methyl-4-(methyl(1-methyl-1H-imidazo[4,5-c]pyridin-6-yl)amino)phenoxy)acetoni-trile]: 101 to 500 nM and > 1000 nM.
On to `CCc1cc(-c2ccc(C#N)nc2)ccc1N(C)c1cc2c(cn1)ncn2C` [Compound 114, 5-(3-ethyl-4-(methyl(1-methyl-1H-imidazo[4,5-c]pyridin-6-yl)amino)phenyl)picolino-nitrile], for which the IC50 was in the range of 0.01 to 100 nM at human TYK2 and 1 to 500 nM in assay [1] (setting [3]).
For `CCc1cc(C(=O)NCCC#N)ccc1N(C)c1cc2c(cn1)ncn2C` [Compound 86, N-(2-Cyanoethyl)-3-ethyl-4-(methyl(1-methyl-1H-imidazo[4,5-c]pyridin-6-yl)amino)benzamide], the IC50 on human TYK2 was 501 to 1000 nM; in assay [1] (setting [3]), > 1000 nM.
Consider `CCc1cc(COC)ccc1N(C)c1cc2c(cn1)ncn2C` [Compound 105, N-(2-Ethyl-4-(methoxymethyl)phenyl)-N,1-dimethyl-1H-imidazo[4,5-c]pyridin-6-amine], for which the IC50 at human TYK2 was 0.01 to 100 nM; in assay [1] (setting [3]), > 1000 nM.
On the same counts, the results for `Cc1cc(C(N)=O)ccc1N(C)c1cc2c(cn1)ncn2C` [Compound 32, 3-Methyl-4-(methyl(1-methyl-1H-imidazo[4,5-c]pyridin-6-yl)amino)benzamide] are > 1000 nM and > 1000 nM.
As for `CN(c1ccc(CC#N)cc1)c1cc2c(cn1)ncn2C` [Compound 26, 2-(4-(Methyl(1-methyl-1H-imidazo[4,5-c]pyridin-6-yl)amino)phenyl)acetonitrile], the results for the IC50 (on human TYK2; in assay [1] (setting [3])) were 101 to 500 nM and > 1000 nM, respectively.
As to `COc1ccc(S(=O)(=O)N2CCCCC2)cc1N(C)c1cc2c(cn1)ncn2C` [Compound 314, [2-Methoxy-5-(piperidine-1-sulfonyl)-phenyl]-methyl-(1-methyl-1H-imidazo[4,5-d]pyridin-6-yl)-amine], the IC50 (on human TYK2; in assay [1] (setting [2])) was > 1000 nM in each case.
Turning to `CCc1cc(Cn2ccnc2)ccc1N(C)c1cc2c(cn1)ncn2C` [Compound 111, N-(4-((1H-imidazol-1-yl)methyl)-2-ethylphenyl)-N,1-dimethyl-1H-imidazo[4,5-c]pyridin-6-amine], the values for the IC50 (on human TYK2; in assay [1] (setting [3])) were 101 to 500 nM and 501 to 1000 nM, respectively.
The matching figures for `CN(c1ccc(O)cc1)c1cc2c(cn1)ncn2C` [Compound 17, 4-(methyl(1-methyl-1H-imidazo[4,5-c]pyridin-6-yl)amino)phenol]: 101 to 500 nM and > 1000 nM.
On the same counts, the results for `CCc1cc(CNS(=O)(=O)C(F)F)cc(F)c1N(C)c1cc2c(cn1)ncn2C` [Compound 324, N-{3-Ethyl-5-fluoro-4-[methyl-(1-methyl-1H-imidazo[4,5-c]pyridin-6-yl)-amino]-benzyl}-C,C-difluoro-methanesulfonamide] are 0.01 to 100 nM and 1 to 500 nM.
The matching figures for `Cc1cc(-c2cncnc2)ccc1N(C)c1cc2c(cn1)ncn2C` [Compound 72, N,1-dimethyl-N-(2-methyl-4-(pyrimidin-5-yl)phenyl)-1H-imidazo[4,5-c]pyridin-6-amine]: 501 to 1000 nM and > 1000 nM.
`Cc1cc(C#N)ccc1N(C)c1cc2c(cn1)ncn2C` [Compound 31, 3-Methyl-4-(methyl(1-methyl-1H-imidazo[4,5-c]pyridin-6-yl)amino)benzonitrile]: the IC50 on human TYK2 was 501 to 1000 nM; in assay [1] (setting [3]) it was > 1000 nM.
As to `CCc1cc(-c2ccc(CN)s2)ncc1N(C)c1cc2c(cn1)ncn2C` [Compound 303, [6-(5-Aminomethyl-thiophen-2-yl)-4-ethyl-pyridin-3-yl]-methyl-(1-methyl-1H-imidazo[4,5-c]pyridin-6-yl)-amine], the IC50 (on human TYK2; in assay [1] (setting [2])) was > 1000 nM throughout.
On to `Cc1ccc(OCC#N)cc1N(C)c1cc2c(cn1)ncn2C` [Compound 57, 2-(4-methyl-3-(methyl(1-methyl-1H-imidazo[4,5-c]pyridin-6-yl)amino)phenoxy)acetoni-trile], for which the IC50 on human TYK2 was 501 to 1000 nM; in assay [1] (setting [3]), > 1000 nM.
For `COc1ccc(COc2ccc(N(C)c3cc4c(cn3)ncn4C)c(C)c2)cc1` [Compound 33, N-(4-(4-Methoxybenzyloxy)-2-methylphenyl)-N,1-dimethyl-1H-imidazo[4,5-c]pyridin-6-amine], the IC50 (at human TYK2; in assay [1] (setting [2])) was > 1000 nM throughout.
Consider `CCc1cn(CCC#N)nc1N(C)c1cc2c(cn1)ncn2C` [Compound 316, 3-{4-Ethyl-3-[methyl-(1-methyl-1H-imidazo[4,5-c]pyridin-6-yl)-amino]-pyrazol-1-yl}-propionitrile], for which the IC50 on human TYK2 is > 1000 nM; in assay [1] (Homo sapiens, HeLa), > 1000 nM.
For the molecule `CCc1cc(C(=O)NCCN(C)C)ccc1N(C)c1cc2c(cn1)ncn2C` [Compound 119, N-(2-(dimethylamino)ethyl)-3-ethyl-4-(methyl(1-methyl-1H-imidazo[4,5-c]pyridin-6-yl)amino)benzamide], the IC50 (at human TYK2; in assay [1] (setting [3])) was > 1000 nM each time.
